In US6436981B1 (dated 2002):

melting point | Compound
146 to 148 °C | CO/N=C(C)/C(=N/N=C/c1ccccc1-n1c(OC)nn(C)c1=O)C1CC1
157 to 161 °C | CON=C(C(C)=NN=Cc1ccccc1-n1c(OC)nn(C)c1=O)c1cccc(C(F)(F)F)c1
